One data set deals with HIV. Kind of data set: microbe, parasite or virus in culture. It counts as cell-based. The method in brief: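 MT-4 cells (2.5×10^5 cells/ml) infected with 1000 CCID50 HIV, added at once to compound dilutions, incubated 4 or 5 days at 37° C. Protection from virus-induced cytopathic effect read by MTT; cytotoxicity from MTT viability of mock-infected cells in parallel.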
In the next data set the test system is mock-infected MT-4 cells. Kind of data set: Cytotoxicity based on viability of mock-infected host cells (MTT method). It counts as cell-based. To be noted: mock-infected MT-4 cells, MTT method, 4 or 5 days at 37° C. The method in brief: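 Mock-infected MT-4 cells at 2.5×10^5 cells/ml were exposed to various concentrations of test compound, run in parallel with HIV-infected (1000 CCID50) cultures. After 4 or 5 days at 37° C., host-cell viability was read by MTT.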

The mark [1] stands for this setting: Human immunodeficiency virus 1, MT4, HIV-infected MT-4 cells, MTT method, 4 or 5 days at 37° C., read-out: ED50 (the source's name).
Where [2] appears, read: Human immunodeficiency virus 1, MT4, read-out: ED50.

Here are results for 26 compounds from patent US6987114B1, “Antiviral pyrimidinedione derivatives and process for the preparation thereof” (Samjin Pharmaceutical Co., Ltd, priority 1999, dated 2006).

Molecules are shown by their SMILES. In brackets after ≈: the same amount, converted by molar mass. Read-outs that look alike come from different tables or passages of the source. Where only a bound is given, the exact number is not on record here.

`CCc1c(Sc2cc(C)cc(C)c2)n(Cc2cccc(Cl)n2)c(=O)[nH]c1=O` [Example 121, 1-(2-Chloropyridin-6-ylmethyl)-5-ethyl-6-(3,5-dimethyl-phenyl)thio-2,4-pyrimidinedione] had a melting point of 145 to 148 °C. In addition, the EC50 in the data set on HIV (setting [1]) is more than 7.72 mg/L. The CD50 in the data set on mock-infected MT-4 cells came to 7.72 µg/mL.

As to `Cc1cc(C)cc(Sc2c(C(C)C)c(=O)[nH]c(=O)n2Cc2cccc(Cl)n2)c1` [Example 122, 1-(2-Chloropyridin-6-ylmethyl)-5-isopropyl-6-(3,5-dimethylphenyl)thio-2,4-pyrimidinedione], the melting point was in the range of 159 to 161 °C. Besides, the EC50 in the data set on HIV (setting [1]) is more than 2.8 mg/L. Further, in the data set with mock-infected MT-4 cells, the CD50 amounted to 2.80 µg/mL.

Compound `CCc1c(Oc2cc(C)cc(C)c2)n(Cc2cccc(Cl)n2)c(=O)[nH]c1=O` [Example 123, 1-(2-Chloropyridin-6-ylmethyl)-5-ethyl-6-(3,5-dimethylphenoxy)-2,4-pyrimidinedione] registered a melting point of 199 to 201 °C. For the same compound, the EC50 with HIV (setting [1]) amounted to 0.122 mg/L (≈ 0.316 µM). For the same compound, the CD50 in the data set with mock-infected MT-4 cells is 79.14 µg/mL.

The compound `Cc1cc(C)cc(Oc2c(C(C)C)c(=O)[nH]c(=O)n2Cc2cccc(Cl)n2)c1` [Example 124, 1-(2-Chloropyridin-6-ylmethyl)-5-isopropyl-6-(3,5-dimethylphenoxy)-2,4-pyrimidinedione] yielded a melting point of 223 to 225 °C. Also, in the data set with HIV (setting [1]), the EC50 stood at 0.082 mg/L (≈ 0.205 µM). This compound also showed a CD50 in the data set with mock-infected MT-4 cells of more than 100.00 µg/mL.

Take `CCc1c(C(=O)c2cc(C)cc(C)c2)n(Cc2cccc(Cl)n2)c(=O)[nH]c1=O` [Example 125, 1-(2-Chloropyridin-6-ylmethyl)-5-ethyl-6-(3,5-dimethyl-benzoyl)-2,4-pyrimidinedione]: the melting point lay within 196 to 198 °C. Moreover, the EC50 with HIV (setting [1]) was found to be 0.015 mg/L (≈ 0.0377 µM). The compound further yielded a CD50 in the data set with mock-infected MT-4 cells of 9.02 µg/mL.

`Cc1cc(C)cc(C(=O)c2c(C(C)C)c(=O)[nH]c(=O)n2Cc2cccc(Cl)n2)c1` [Example 126, 1-(2-Chloropyridin-6-ylmethyl)-5-isopropyl-6-(3,5-dimethylbenzoyl)-2,4-pyrimidinedione]: the melting point was 206 to 208 °C. For the same compound, the EC50 in the data set with HIV (setting [1]) was determined as 0.011 mg/L (≈ 0.0267 µM). In addition, the CD50 in the data set on mock-infected MT-4 cells is 9.85 µg/mL.

Compound `CCc1c(Oc2cc(C)cc(C)c2)n(Cc2cccc(Br)n2)c(=O)[nH]c1=O` [Example 127, 1-(2-Bromopyridin-6-ylmethyl)-5-ethyl-6-(3,5-dimethylphenoxy)-2,4-pyrimidinedione] registered a melting point of 201 to 203 °C. For the same compound, the EC50 with HIV (setting [1]) was determined as 0.194 mg/L (≈ 0.451 µM). This compound also returned a CD50 in the data set with mock-infected MT-4 cells of 9.46 µg/mL.

The compound `Cc1cc(C)cc(Oc2c(C(C)C)c(=O)[nH]c(=O)n2Cc2cccc(Br)n2)c1` [Example 128, 1-(2-Bromopyridin-6-ylmethyl)-5-isopropyl-6-(3,5-dimethylphenoxy)-2,4-pyrimidinedione] displayed a melting point of 228 to 230 °C. In addition, in the data set on HIV (setting [1]), the EC50 came to 0.079 mg/L (≈ 0.178 µM). Further, the CD50 in the data set on mock-infected MT-4 cells stood at 48.27 µg/mL.

For `Cc1cc(C)cc(C(=O)c2c(C(C)C)c(=O)[nH]c(=O)n2Cc2cccc(Br)n2)c1` [Example 130, 1-(2-Bromopyridin-6-ylmethyl)-5-isopropyl-6-(3,5-dimethyl-benzoyl)-2,4-pyrimidinedione], the melting point is 218 to 220 °C. In the data set with HIV (setting [1]), the EC50 stood at 0.015 mg/L (≈ 0.0329 µM). Besides, the CD50 with mock-infected MT-4 cells came out at 8.85 µg/mL.

Compound `CCc1c(Sc2cc(C)cc(C)c2)n(Cc2ccc3ccccc3n2)c(=O)[nH]c1=O` [Example 131, 1-(Quinolin-2-ylmethyl)-5-ethyl-6-(3,5-dimethylphenyl)-thio-2,4-pyrimidinedione] returned a melting point of 107 to 110 °C. Further, in the data set on HIV (setting [1]), the EC50 was more than 10.6 mg/L. For the same compound, the CD50 in the data set on mock-infected MT-4 cells worked out at 10.60 µg/mL.

`Cc1cc(C)cc(Sc2c(C(C)C)c(=O)[nH]c(=O)n2Cc2ccc3ccccc3n2)c1` [Example 132, 1-(Quinolin-2-ylmethyl)-5-isopropyl-6-(3,5-dimethylphenyl)thio-2,4-pyrimidinedione]: the melting point was in the range of 181 to 183 °C. For the same compound, the EC50 in the data set with HIV (setting [1]) was more than 9.58 mg/L. The compound also displayed a CD50 in the data set on mock-infected MT-4 cells of 9.60 µg/mL.

For `CCc1c(Oc2cc(C)cc(C)c2)n(Cc2ccc3ccccc3n2)c(=O)[nH]c1=O` [Example 133, 1-(Quinolin-2-ylmethyl)-5-ethyl-6-(3,5-dimethyl-phenoxy)-2,4-pyrimidinedione], the melting point was 220 to 222 °C. Besides, the EC50 in the data set on HIV (setting [1]) amounted to 0.06 mg/L (≈ 0.149 µM). This compound also had a CD50 with mock-infected MT-4 cells of 11.70 µg/mL.

With `Cc1cc(C)cc(Oc2c(C(C)C)c(=O)[nH]c(=O)n2Cc2ccc3ccccc3n2)c1` [Example 134, 1-(Quinolin-2-ylmethyl)-5-isopropyl-6-(3,5-dimethyl-phenoxy)-2,4-pyrimidinedione], the melting point fell in the range of 246 to 248 °C. For the same compound, the EC50 in the data set with HIV (setting [1]) came out at 0.004 mg/L (≈ 0.00963 µM). The compound also yielded a CD50 in the data set with mock-infected MT-4 cells of 66.80 µg/mL.

`CCc1c(C(=O)c2cc(C)cc(C)c2)n(Cc2ccc3ccccc3n2)c(=O)[nH]c1=O` [Example 135, 1-(Quinolin-2-ylmethyl)-5-ethyl-6-(3,5-dimethylbenzoyl)-2,4-pyrimidinedione]: the melting point is 218 to 220 °C. In the data set on HIV (setting [1]), the EC50 turned out to be 0.0089 mg/L (≈ 0.0215 µM). In addition, in the data set on mock-infected MT-4 cells, the CD50 is 6.80 µg/mL.

Turning to `Cc1cc(C)cc(C(=O)c2c(C(C)C)c(=O)[nH]c(=O)n2Cc2ccc3ccccc3n2)c1` [Example 136, 1-(Quinolin-2-ylmethyl)-5-isopropyl-6-(3,5-dimethyl-benzoyl)-2,4-pyrimidinedione], the melting point lay in the range of 152 to 154 °C. Moreover, in the data set with HIV (setting [1]), the EC50 was 0.0097 mg/L (≈ 0.0227 µM). For the same compound, in the data set with mock-infected MT-4 cells, the CD50 came to 8.70 µg/mL.

In the case of `CCc1c(Oc2cc(C)cc(C)c2)n(Cn2nnc3ccccc32)c(=O)[nH]c1=O` [Example 141, 1-(1H-benzotriazol-1-ylmethyl)-5-ethyl-6-(3,5-dimethylphenoxy)-2,4-pyrimidinedione], the melting point fell in the range of 248 to 249 °C. Also, the EC50 in the data set on HIV (setting [1]) is 0.11 mg/L (≈ 0.281 µM). This compound also came in with a CD50 in the data set with mock-infected MT-4 cells of 27.60 µg/mL.

`Cc1cc(C)cc(Oc2c(C(C)C)c(=O)[nH]c(=O)n2Cn2nnc3ccccc32)c1` [Example 142, 1-(1H-benzotriazol-1-ylmethyl)-5-isopropyl-6-(3,5-dimethylphenoxy)-2,4-pyrimidinedione]: the melting point was in the range of 278 to 279 °C. Further, the EC50 with HIV (setting [1]) stood at 0.044 mg/L (≈ 0.109 µM). The CD50 in the data set on mock-infected MT-4 cells is more than 100.00 µg/mL.

As for `CCc1c(C(=O)c2cc(C)cc(C)c2)n(Cn2nnc3ccccc32)c(=O)[nH]c1=O` [Example 143, 1-(1H-benzotriazol-1-ylmethyl)-5-ethyl-6-(3,5-dimethylbenzoyl)-2,4-pyrimidinedione], the melting point lay within 226 to 229 °C. The EC50 in the data set on HIV (setting [1]) came out at 0.026 mg/L (≈ 0.0644 µM). The same compound had a CD50 in the data set with mock-infected MT-4 cells of 9.76 µg/mL.

Regarding `Cc1cc(C)cc(C(=O)c2c(C(C)C)c(=O)[nH]c(=O)n2Cn2nnc3ccccc32)c1` [Example 144, 1-(1H-benzotriazol-1-ylmethyl)-5-isopropyl-6-(3,5-dimethyl-benzoyl)-2,4-pyrimidinedione], the melting point lay in the range of 246 to 247 °C. Besides, the EC50 with HIV (setting [1]) turned out to be 0.03 mg/L (≈ 0.0719 µM). This compound also returned a CD50 in the data set on mock-infected MT-4 cells of 8.89 µg/mL.

For `CCc1c(Sc2cc(C)cc(C)c2)n(Cc2nc3ccccc3o2)c(=O)[nH]c1=O` [Example 145, 1-(Benzoxazol-2-ylmethyl)-5-ethyl-6-(3,5-dimethylphenyl)thio-2,4-pyrimidinedione], the melting point lay in the range of 104 to 106 °C. The EC50 with HIV (setting [2]) is 3.04 mg/L (≈ 7.46 µM). In the data set on mock-infected MT-4 cells, this compound yielded a CD50 of more than 100.00 µg/mL.

In the case of `Cc1cc(C)cc(Sc2c(C(C)C)c(=O)[nH]c(=O)n2Cc2nc3ccccc3o2)c1` [Example 146, 1-(Benzoxazol-2-ylmethyl)-5-isopropyl-6-(3,5-dimethylphenyl)thio-2,4-pyrimidinedione], the melting point lay within 107 to 109 °C. Also, in the data set with HIV (setting [2]), the EC50 is 1.02 mg/L (≈ 2.42 µM). The compound further registered a CD50 in the data set with mock-infected MT-4 cells of more than 100.00 µg/mL.

The compound `CCc1c(Oc2cc(C)cc(C)c2)n(Cc2nc3ccccc3o2)c(=O)[nH]c1=O` [Example 147, 1-(Benzoxazol-2-ylmethyl)-5-ethyl-6-(3,5-dimethylphenoxy)-2,4-pyrimidinedione] yielded a melting point of 121 to 123 °C. Further, in the data set on HIV (setting [2]), the EC50 is 0.061 mg/L (≈ 0.156 µM). The compound further had a CD50 in the data set with mock-infected MT-4 cells of 40.20 µg/mL.

In turn, `Cc1cc(C)cc(Oc2c(C(C)C)c(=O)[nH]c(=O)n2Cc2nc3ccccc3o2)c1` [Example 148, 1-(Benzoxazol-2-ylmethyl)-5-isopropyl-6-(3,5-dimethylphenoxy)-2,4-pyrimidinedione] gave a melting point of 200 to 202 °C. Also, the EC50 in the data set with HIV (setting [2]) amounted to 0.01 mg/L (≈ 0.0247 µM). Besides, the CD50 in the data set with mock-infected MT-4 cells was determined as 9.00 µg/mL.

As for `CCc1c(C(=O)c2cc(C)cc(C)c2)n(Cc2nc3ccccc3o2)c(=O)[nH]c1=O` [Example 149, 1-(Benzoxazol-2-ylmethyl)-5-ethyl-6-(3,5-dimethyl-benzoyl)-2,4-pyrimidinedione], the melting point lay in the range of 218 to 220 °C. Moreover, in the data set on HIV (setting [2]), the EC50 stood at 0.029 mg/L (≈ 0.0719 µM). For the same compound, the CD50 with mock-infected MT-4 cells amounted to 6.78 µg/mL.

The compound `COC(=O)c1ccoc1Cn1c(Sc2cc(C)cc(C)c2)c(C(C)C)c(=O)[nH]c1=O` [Example 152, 1-(3-Methoxycarbonyl-2-furanylmethyl)-5-isopropyl-6-(3,5-dimethylphenyl)thio-2,4-pyrimidinedione] gave a melting point of 135 to 137 °C. Also, the EC50 in the data set on HIV (setting [1]) was 0.018 mg/L (≈ 0.042 µM). The CD50 in the data set on mock-infected MT-4 cells came to 9.61 µg/mL.

The compound `CCc1c(Oc2cc(C)cc(C)c2)n(Cc2occc2C(=O)OC)c(=O)[nH]c1=O` [Example 153, 1-(3-Methoxycarbonyl-2-furanylmethyl)-5-ethyl-6-(3,5-dimethylphenoxy)-2,4-pyrimidinedione] displayed a melting point of 150 to 152 °C. Besides, in the data set on HIV (setting [1]), the EC50 is 0.278 mg/L (≈ 0.698 µM). The CD50 in the data set on mock-infected MT-4 cells worked out at 12.22 µg/mL.

For orientation: melting point means the temperature of the solid-liquid transition.
